What was measured:
IgG anti-TPO = assay: Phase 2 CSU study: serum IgG anti-TPO ELISA; assay type: in vivo, human; settings: for IgG anti-TPO (IU) Median Percent Change from Baseline: Baseline to Week 12
Description: Blood samples were also collected through Week 12 to evaluate the change in baseline in various biomarkers, including sMRGPRX2, IgG anti-TPO, IgG anti-FCεRI, IgG anti-IgE, and IL-31.
Collection of biological samples for other biomarker research was also part of this study. The following samples for biomarker research were required and were to be collected from all participants in this study: • Serum and plasma samples for soluble biomarkers and cellular tests. Analytes included IgG anti-IgE, IgG anti-FcεRI, IgG anti-TPO, IgE anti-TPO, IL-31, and sMRGPRX2. • Blood samples for immune cell phenotyping, including measurement of eosinophil levels • Blood samples for BTK occupancy in peripheral blood mononuclear cells (PBMCs) at selected sites
For each patient, serum samples were to be collected on each of four visits (Visits 2, 4, 6, and end of study/follow up).
Serum analyte testing was to be performed using the following commercial assays: • sMRGPRX2 ELISA (Cat. No. #MBS933336; MyBioSource) • IL-31 HTRF assay (Cat. No. #62HIL31PEG; Cisbio/PerkinElmer) • IgG anti-TPO ELISA (Cat. No. #ORG503; Orgentec Diagnostica GmbH)
If dilutions were to be prepared, the same dilutions were to be prepared twice from each sample. These were to be measured on different plates. Each plate was to include a standard curve. Samples were to be measured twice for all biomarkers except for sMRGPRX2. Mean measurement values were to be calculated, and the concentration of the biomarker was to be calculated using GraphPad Prism 9 software (4-PL model).
The IgG anti-TPO ELISA was performed according to the manufacturer's instructions.
Assay data ranges are described below. • sMRGPRX2: 0.1 ng/mL-10 ng/mL • IgG anti-FCεRI: 0-10000 arbitrary units (AU) • IgG anti-TPO: 0-3000 international units (IU) • IgE anti-TPO: 0-500 AU • IgG anti-IgE: 0-100000 AU • IL-31: 0.1 ng/mL-20 ng/mL

[1] = system: 251 kinases sharing a common cysteine in their active site; settings: 1 μM; cited from earlier work
platelet aggregation = settings: healthy volunteers or patients with ITP; cited from earlier work
cardiac repolarization = settings: healthy volunteers (N=51), also supratherapeutic doses; cited from earlier work
rat Arthus reaction = settings: cited from earlier work

For `CC(C)(C=C(C#N)C(=O)N1CCC[C@@H](n2nc(-c3ccc(Oc4ccccc4)cc3F)c3c(N)ncnc32)C1)N1CCN(C2COC2)CC1` [rilzabrutinib, (R)-2-[3-[4-amino-3-(2-fluoro-4-phenoxy-phenyl)pyrazolo[3,4-d]pyrimidin-1-yl]piperidine-1-carbonyl]-4-methyl-4-[4-(oxetan-3-yl)piperazin-1-yl]pent-2-enenitrile], the “reduction from baseline for IgG anti-TPO” value (IgG anti-TPO; 400 mg TID, Week 12) was 46.7%, the “IgG anti-TPO (IU) Median Percent Change from Baseline” value (IgG anti-TPO; 400 mg BID) was −19.4% and the “IgG anti-TPO (IU) Median Percent Change from Baseline” value (IgG anti-TPO; 400 mg QPM) was −39.9%. The “IgG anti-TPO (IU) Median Percent Change from Baseline” value (IgG anti-TPO; 400 mg TID) was −46.7%, the “number of kinases inhibited (>90% inhibition) of 251 kinases” value [1] was 6 and the “effect on platelet aggregation” value (platelet aggregation) was “does not alter”. The “effects on cardiac repolarization (ECG parameters incl. corrected QT interval)” value (cardiac repolarization) was “does not exert clinically relevant effects” and the “rat Arthus reaction” value (rat Arthus reaction) was “blockade”.

From patent US20260256792A1, “TREATMENT OF CHRONIC SPONTANEOUS URTICARIA BY ADMINISTERING (R)-2-[3-[4-AMINO-3-(2-FLUORO-4-PHENOXY-PHENYL)PYRAZOLO[3,4-D]PYRIMIDIN-1-YL]PIPERIDINE-1-CARBONYL]-4-METHYL-4-[4-(OXETAN-3-YL)PIPERAZIN-1-YL]PENT-2-ENENITRILE” (priority 2023, published 2026)
